Results as given in patent publication US10174096B2, “Feline bitter taste receptors and methods” (Applied Food Biotechnology, Inc., priority 2013, dated 2019).

Legend:
Format in all cases: cell-based, feline
fTAS2R43 = assay: Fluo-4AM calcium assay, cells transiently expressing fTAS2R43
Procedure: (§1) On day 0, 60,000 cells per well were plated on poly lysine coated, black 96 well plates with clear bottoms (Costar). The following day the cells were transfected with 150 ng TAS2R38 expression vector, e.g., pcDNA3.1D-FLAGV5His (Invitrogen) along with 45 ng of Ga16 chimera containing the last 44 amino acids of rat gustducin (Gα16gust44) with 0.5 ul Lipofectamine 2000 (Invitrogen) per well. Cells were then incubated 22-44 hours at 37° C. 5% CO2.
Generation of cell lines transiently expressing the other fTAS2Rs disclosed herein was analogous.
(§2) Testing for a functional response of fTAS2R38 to the known hTAS2R38 ligands, PTC and PROP, and of fTAS2R43 to the known hTAS2R43 ligands, aloin, denatonium and saccharine), was determined via automated calcium imaging using the Fluo-4AM (Life Technologies Corporation) Calcium Assay.

fTAS2R38 [1] = assay: Fluo-4AM calcium assay, cells transiently expressing fTAS2R38
Procedure: Cell lines that transiently express a desired TAS2R disclosed herein were generated by transfecting the appropriate expression vector, e.g., pcDNA3.1D-FLAGV5His-TAS2R38, constructed as described above in Ex. 2A into cells of a eukaryotic cell line (Life Technologies, Cat# R700-07).
as §1
The expression of fTAS2R38 was evaluated by testing for the presence of a functional response to a known hTAS2R38 ligand (e.g., PTC), determined via automated calcium imaging using a Fluo-4AM (Life Technologies Corporation) Calcium Assay. Fluo-4AM is a fluorescent indicator of intracellular calcium dynamics (change in concentration) and allows monitoring changes in the calcium concentration, particularly an increase in response to receptor activation occurring after agonist exposure.
as §2

fTAS2R38 [2] = assay: Fluo-4AM calcium assay, stable G[alpha]16-gustducin 44/TAS2R38 cell line
Excerpt: Fluo-4AM is a fluorescent indicator of intracellular calcium dynamics (change in concentration) and allows monitoring changes in the calcium concentration, particularly an increase in response to receptor activation occurring after agonist exposure.

SMILES: O=C1c2c(O)cccc2C([C@@H]2O[C@H](CO)[C@@H](O)[C@H](O)[C@H]2O)c2cc(CO)cc(O)c21 (stereo partly shown) [aloin]
- activation over baseline (fTAS2R43; 300 μM aloin, transiently transfected cells): 45%

SMILES: O=C1NS(=O)(=O)c2ccccc21 [saccharin]
- stimulation of fTAS2R43 (fTAS2R43; 6.7 mM saccharin, transiently transfected cells): not stimulated

SMILES: CCCN(CCC)S(=O)(=O)c1ccc(C(=O)O)cc1 [probenecid, p-(dipropylsulfamoyl)benzoic acid]
- inhibition of the response to aloin (fTAS2R43; 1 mM probenecid): inhibited
- inhibition of the response to denatonium (fTAS2R43; 1 mM probenecid): inhibited
- inhibition of the response to PTC (fTAS2R38 [1]; 1 mM probenecid): inhibited

SMILES: NC(=S)Nc1ccccc1 [PTC, phenylthiocarbamide]
- activation over baseline (fTAS2R38 [1]; 100 μM PTC, transiently transfected cells): 81%
- stimulation over baseline (fTAS2R38 [2]; 100 μM PTC): 90%

SMILES: CCCc1cc(=O)[nH]c(=S)[nH]1 [PROP, 6-n-propylthiouracil]
- stimulation of fTAS2R38 (fTAS2R38 [1]; 30 μM PROP, transiently transfected cells): not stimulated
- stimulation of stable fTAS2R38 cell line (fTAS2R38 [2]; 30 μm PROP): not stimulated

SMILES: CC[N+](CC)(CC(=O)Nc1c(C)cccc1C)Cc1ccccc1 [denatonium]
- activation over baseline (fTAS2R43; 1 mM denatonium, transiently transfected cells): 17%
